Columns and labels:
Test in all cases: relative viability (nuclei count vs DMSO), 5 days (fraction); higher = more cells survive
[1] = compound: COc1cc2nccc(Oc3ccc(NC(=O)C4(C(=O)Nc5ccc(F)cc5)CC4)cc3)c2cc1OC [Cabozantinib] + Cc1cc(Nc2cc(N3CCN(C)CC3)nc(Sc3ccc(NC(=O)C4CC4)cc3)n2)n[nH]1 [Tozasertib] (partner 0.1 µM)
Procedure, shortened: (§1)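 After 5 days of treatment, lung cancer cells in 1536-well plates were fixed and stained in a single step (final 0.05% Triton X-100, 1% formaldehyde, 1 ug/ml Hoechst) and their nuclei counted on 4× images. Treatment had been applied by pin tool the day after seeding as one drug alone or as a fixed anchor-drug dose with five library-drug doses (not always all listed) in √10 steps. Relative viability is the nuclei count of treated wells divided by that of vehicle wells, and values are medians of duplicate plates.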

Zosuquidar + Palbociclib = compound: O[C@@H](COc1cccc2ncccc12)CN1CCN([C@@H]2c3ccccc3[C@@H]3[C@H](c4ccccc42)C3(F)F)CC1 [Zosuquidar] + CC(=O)c1c(C)c2cnc(Nc3ccc(N4CCNCC4)cn3)nc2n(C2CCCC2)c1=O [Palbociclib] (partner 0.5 µM)
Procedure, shortened: as §1

Zosuquidar + Alpelisib = compound: O[C@@H](COc1cccc2ncccc12)CN1CCN([C@@H]2c3ccccc3[C@@H]3[C@H](c4ccccc42)C3(F)F)CC1 [Zosuquidar] + Cc1nc(NC(=O)N2CCC[C@H]2C(N)=O)sc1-c1ccnc(C(C)(C)C(F)(F)F)c1 [Alpelisib] (partner 2 µM)
Procedure, shortened: as §1

Zosuquidar + Decitabine = compound: O[C@@H](COc1cccc2ncccc12)CN1CCN([C@@H]2c3ccccc3[C@@H]3[C@H](c4ccccc42)C3(F)F)CC1 [Zosuquidar] + Nc1ncn([C@H]2C[C@H](O)[C@@H](CO)O2)c(=O)n1 [Decitabine] (partner 2 µM)
Procedure, shortened: as §1

Cell Line | relative viability ([1]; first compound 0.02 µM) | relative viability ([1]; first compound 0.06325 µM) | relative viability ([1]; first compound 0.2 µM) | relative viability ([1]; first compound 0.6325 µM) | relative viability ([1]; first compound 2 µM) | relative viability (Zosuquidar + Palbociclib; first compound 0.01 µM) | relative viability (Zosuquidar + Palbociclib; first compound 0.03162 µM) | relative viability (Zosuquidar + Palbociclib; first compound 0.1 µM) | relative viability (Zosuquidar + Palbociclib; first compound 0.3162 µM) | relative viability (Zosuquidar + Palbociclib; first compound 1 µM) | relative viability (Zosuquidar + Alpelisib; first compound 0.01 µM) | relative viability (Zosuquidar + Alpelisib; first compound 0.03162 µM) | relative viability (Zosuquidar + Alpelisib; first compound 0.1 µM) | relative viability (Zosuquidar + Alpelisib; first compound 0.3162 µM) | relative viability (Zosuquidar + Alpelisib; first compound 1 µM) | relative viability (Zosuquidar + Decitabine; first compound 0.01 µM) | relative viability (Zosuquidar + Decitabine; first compound 0.03162 µM) | relative viability (Zosuquidar + Decitabine; first compound 0.1 µM) | relative viability (Zosuquidar + Decitabine; first compound 0.3162 µM) | relative viability (Zosuquidar + Decitabine; first compound 1 µM)
COR-L23 | 0.235 | 0.212 | 0.194 | 0.145 | 0.137 | 0.295 | 0.328 | 0.301 | 0.354 | 0.314 | 0.88 | 0.783 | 0.789 | 0.902 | 0.723 | 0.501 | 0.421 | 0.511 | 0.469 | 0.468
NCI-H2009 | 0.827 | 0.889 | 0.768 | 0.699 | 0.668 | 0.204 | 0.183 | 0.154 | 0.251 | 0.211 | 1.08 | 0.96 | 1.19 | 1.15 | 1.14 | 0.348 | 0.338 | 0.376 | 0.327 | 0.344
NCI-H322M | 0.488 | 0.511 | 0.425 | 0.439 | 0.436 | 0.458 | 0.485 | 0.475 | 0.463 | 0.468 | 0.836 | 0.739 | 0.648 | 0.859 | 0.728 | 0.598 | 0.548 | 0.666 | 0.632 | 0.625
NCI-H358 | 0.106 | 0.0894 | 0.103 | 0.0924 | 0.108 | 0.119 | 0.148 | 0.132 | 0.16 | 0.136 | 0.914 | 0.833 | 0.832 | 0.839 | 0.893 | 0.23 | 0.194 | 0.214 | 0.255 | 0.19
LK-2 | – | 0.169 | – | 0.18 | 0.175 | 0.666 | 0.722 | 0.563 | 0.768 | 0.715 | 1.29 | 1.26 | 0.939 | 1.08 | 1.02 | 0.247 | 0.361 | 0.28 | 0.372 | 0.304
NCI-H1755 | 0.673 | 0.666 | 0.618 | 0.529 | 0.539 | 0.47 | 0.461 | 0.464 | 0.441 | 0.454 | 0.89 | 0.951 | 0.888 | 0.94 | 0.913 | 0.672 | 0.663 | 0.716 | 0.728 | 0.708
A-427 | 0.316 | 0.201 | 0.209 | 0.213 | 0.185 | 0.542 | 0.522 | 0.552 | 0.566 | 0.51 | 1.08 | 1.01 | 0.902 | 1.07 | 1.04 | 0.582 | 0.561 | 0.584 | 0.653 | 0.557
PC-3 [JPC-3] | 0.928 | 1.04 | – | 0.938 | 0.861 | 0.554 | 0.52 | 0.542 | 0.507 | 0.473 | 0.986 | 1 | 0.91 | 1.03 | 0.994 | 0.886 | 0.925 | 0.791 | 0.859 | 0.79
LOU-NH91 | 0.677 | 0.729 | – | 0.724 | 0.75 | 0.488 | 0.539 | 0.529 | 0.552 | 0.499 | 0.702 | 0.717 | 0.6 | 0.718 | 0.725 | 0.805 | 0.814 | 0.703 | 0.834 | 0.761
BEN | 0.512 | 0.474 | 0.507 | 0.56 | 0.461 | 0.467 | 0.491 | 0.456 | 0.455 | 0.489 | 1.07 | 0.968 | 0.815 | 1 | 1.21 | 0.695 | 0.664 | 0.659 | 0.822 | 0.787
NCI-H2085 | 0.87 | 0.852 | 0.818 | 0.655 | 0.527 | 0.5 | 0.469 | – | 0.508 | 0.484 | 0.957 | 0.917 | 0.893 | 1 | 0.977 | 0.556 | 0.586 | – | 0.653 | 0.55
LC-2-ad | – | 0.454 | 0.46 | 0.456 | 0.392 | 0.468 | 0.465 | 0.492 | 0.493 | 0.486 | 0.892 | 0.938 | 0.817 | 0.886 | 0.928 | 0.878 | 0.922 | 0.876 | 0.725 | 0.776
ABC-1 | 0.194 | 0.195 | 0.265 | 0.194 | 0.218 | 0.616 | 0.685 | 0.68 | 0.84 | 0.599 | 0.949 | 1.07 | 1.06 | 0.994 | 1.16 | 1.27 | 1.15 | 1.15 | 1.24 | 1.15
NCI-H727 | 0.53 | 0.777 | 0.513 | 0.513 | 0.554 | 0.596 | 0.607 | – | 0.599 | 0.668 | 0.669 | 0.631 | 0.536 | 0.588 | 0.577 | 0.823 | 0.906 | – | 0.794 | 0.887
EPLC-272H | 0.357 | 0.338 | 0.204 | 0.295 | 0.352 | 0.32 | 0.362 | 0.298 | 0.31 | 0.336 | 0.946 | 0.999 | 0.801 | 0.936 | 0.805 | 0.393 | 0.429 | 0.4 | 0.392 | 0.376
EKVX | 0.422 | 0.481 | 0.364 | 0.394 | 0.314 | 0.377 | 0.39 | – | 0.411 | 0.375 | 0.887 | 0.846 | 0.634 | 0.781 | 0.94 | 0.299 | 0.414 | – | 0.334 | 0.36
